The text below walks through data of US11208386B2, “Inhibitors of protein arginine deiminases (PADs) and methods of preparation and use thereof” (University of Massachusetts, priority 2016, dated 2021).

What all share (assay type): biochemical
Assay [1] has as its target T1, PAD1 (Homo sapiens, UniProt Q9ULC6).
T1 construct: made in house
T1 sequence (Q9ULC6 1-663): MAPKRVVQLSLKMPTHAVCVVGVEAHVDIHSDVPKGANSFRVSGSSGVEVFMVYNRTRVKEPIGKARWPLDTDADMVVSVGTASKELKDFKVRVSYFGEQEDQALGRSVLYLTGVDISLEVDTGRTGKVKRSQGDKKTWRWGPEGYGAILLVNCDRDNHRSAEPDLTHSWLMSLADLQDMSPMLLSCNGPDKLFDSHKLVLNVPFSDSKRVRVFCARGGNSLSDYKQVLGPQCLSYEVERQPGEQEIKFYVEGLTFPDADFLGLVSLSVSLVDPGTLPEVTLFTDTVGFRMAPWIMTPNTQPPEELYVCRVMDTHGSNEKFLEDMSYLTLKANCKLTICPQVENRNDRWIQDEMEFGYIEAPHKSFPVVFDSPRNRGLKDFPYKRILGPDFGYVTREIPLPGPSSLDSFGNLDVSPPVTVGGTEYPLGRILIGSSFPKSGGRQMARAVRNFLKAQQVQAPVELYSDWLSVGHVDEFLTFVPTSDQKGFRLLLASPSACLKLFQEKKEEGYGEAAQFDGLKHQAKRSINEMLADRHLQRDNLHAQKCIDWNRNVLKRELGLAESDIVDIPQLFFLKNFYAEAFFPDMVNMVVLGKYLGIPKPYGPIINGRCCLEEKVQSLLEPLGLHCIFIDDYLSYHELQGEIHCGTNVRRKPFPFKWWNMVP
In words: Inactivation kinetics, PAD1. The following applies: for kinact/KI: a: single kobs determined, b: from a linear fit; for Fold PAD1 Selectivity: kinact/KI relative to least inhibited isozyme (1.0). In a few lines:
(§1)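 PAD1, 2 or 4 (2.0 μM) or PAD3 (5.0 μM) preincubated at 37 °C with varying inhibitor in 50 mM HEPES, 10 mM CaCl2, 2 mM DTT, pH 7.6. Timed aliquots assayed 15 min with 10 mM BAEE (BAA for PAD3); citrulline quantified by COLDER.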

The target of assay [2] is T2, PAD2 (Homo sapiens, UniProt Q9Y2J8).
T2 construct: made in house
T2 sequence (Q9Y2J8 whole entry): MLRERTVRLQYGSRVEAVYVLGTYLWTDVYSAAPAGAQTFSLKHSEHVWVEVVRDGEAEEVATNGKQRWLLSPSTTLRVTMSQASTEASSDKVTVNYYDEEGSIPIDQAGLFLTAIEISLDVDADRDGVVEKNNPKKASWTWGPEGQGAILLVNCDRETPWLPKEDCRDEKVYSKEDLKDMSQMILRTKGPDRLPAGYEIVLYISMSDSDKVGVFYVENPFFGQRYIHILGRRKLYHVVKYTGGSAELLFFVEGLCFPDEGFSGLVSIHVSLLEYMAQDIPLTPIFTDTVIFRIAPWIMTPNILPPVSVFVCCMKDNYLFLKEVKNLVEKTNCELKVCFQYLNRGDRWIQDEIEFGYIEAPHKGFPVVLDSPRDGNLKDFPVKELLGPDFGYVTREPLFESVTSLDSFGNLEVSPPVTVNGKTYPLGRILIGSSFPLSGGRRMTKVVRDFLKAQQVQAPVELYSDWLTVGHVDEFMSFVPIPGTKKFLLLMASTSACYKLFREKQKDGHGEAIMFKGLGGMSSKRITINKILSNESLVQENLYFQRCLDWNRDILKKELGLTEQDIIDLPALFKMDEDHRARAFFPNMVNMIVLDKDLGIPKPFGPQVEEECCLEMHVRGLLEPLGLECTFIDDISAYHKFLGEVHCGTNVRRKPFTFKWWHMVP
In words: Inactivation kinetics, PAD2. The following applies: for kinact/KI: a: single kobs determined, b: from a linear fit, other footnotes: from kinact and KI; for Fold PAD2 Selectivity: kinact/KI relative to least inhibited isozyme (1.0). In a few lines: as §1

Assay [3] concerns the target T3, PAD3 (Homo sapiens, UniProt Q9ULW8).
T3 construct: made in house
T3 sequence (Q9ULW8 1-664): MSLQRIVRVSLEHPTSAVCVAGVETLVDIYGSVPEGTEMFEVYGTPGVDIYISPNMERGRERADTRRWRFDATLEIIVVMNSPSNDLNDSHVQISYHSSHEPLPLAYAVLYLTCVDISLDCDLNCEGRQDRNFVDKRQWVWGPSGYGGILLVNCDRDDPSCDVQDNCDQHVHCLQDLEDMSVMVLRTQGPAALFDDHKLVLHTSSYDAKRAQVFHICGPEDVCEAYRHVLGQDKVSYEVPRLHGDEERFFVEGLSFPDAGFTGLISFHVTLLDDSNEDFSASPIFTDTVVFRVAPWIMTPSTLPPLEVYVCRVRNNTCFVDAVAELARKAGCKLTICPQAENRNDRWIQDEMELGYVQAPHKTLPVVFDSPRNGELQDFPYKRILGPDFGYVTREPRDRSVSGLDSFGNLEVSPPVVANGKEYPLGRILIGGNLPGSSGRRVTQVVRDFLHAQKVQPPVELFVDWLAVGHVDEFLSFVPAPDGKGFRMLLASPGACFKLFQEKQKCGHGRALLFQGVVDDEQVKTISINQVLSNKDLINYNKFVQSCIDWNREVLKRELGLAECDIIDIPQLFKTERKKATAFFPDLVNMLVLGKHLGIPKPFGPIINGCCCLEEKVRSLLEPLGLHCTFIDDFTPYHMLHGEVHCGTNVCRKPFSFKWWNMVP
In words: Inactivation kinetics, PAD3. The following applies: for kinact/KI: a: single kobs determined; for Fold PAD3 Selectivity: kinact/KI relative to least inhibited isozyme (1.0). In a few lines: as §1

In assay [4] the target is T4, PAD4 (Homo sapiens, UniProt Q9UM07).
T4 construct: made in house
T4 sequence (Q9UM07 whole entry): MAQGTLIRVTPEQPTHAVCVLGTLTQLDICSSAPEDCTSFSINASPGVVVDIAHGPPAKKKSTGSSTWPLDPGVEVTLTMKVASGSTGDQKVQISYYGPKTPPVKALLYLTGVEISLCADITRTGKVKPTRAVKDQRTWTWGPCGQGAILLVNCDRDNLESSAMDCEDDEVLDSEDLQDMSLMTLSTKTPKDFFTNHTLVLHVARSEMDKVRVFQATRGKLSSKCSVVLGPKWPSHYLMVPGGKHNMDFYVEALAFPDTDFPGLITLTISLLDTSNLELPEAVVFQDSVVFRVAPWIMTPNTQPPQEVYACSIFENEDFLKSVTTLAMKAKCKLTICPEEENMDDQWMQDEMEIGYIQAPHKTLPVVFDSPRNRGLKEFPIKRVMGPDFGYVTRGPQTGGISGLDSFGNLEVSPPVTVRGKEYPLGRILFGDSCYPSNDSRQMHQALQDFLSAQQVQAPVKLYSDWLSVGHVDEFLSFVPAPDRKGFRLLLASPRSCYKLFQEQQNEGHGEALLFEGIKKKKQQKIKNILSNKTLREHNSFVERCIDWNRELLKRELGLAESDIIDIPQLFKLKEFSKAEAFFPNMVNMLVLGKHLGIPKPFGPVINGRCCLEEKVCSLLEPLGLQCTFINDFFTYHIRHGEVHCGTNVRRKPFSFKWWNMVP
In words: Inactivation kinetics, PAD4. As to conditions: for kinact/KI: a: single kobs determined, b: from a linear fit; for Fold PAD4 Selectivity: kinact/KI relative to least inhibited isozyme (1.0). In a few lines:
as §1

On to `CCN1Cc2cccc(C(=O)N[C@@H](CCCNC(=N)CCl)c3nc4cc(OC)ccc4n3C)c2C1=O` [Compound 8p, N1-(2-ethyl-3-oxoisoindoline)benzoyl-N5-(2-chloro-1-iminoethyl)-1-(5-methoxy-1-methyl-benzo[d]imidazol-2-yl)-L-ornithine], for which, in assay [1], the kinact/KI (in general, the second-order rate constant of inactivation) was 1180 M⁻¹ s⁻¹ and the “Fold PAD1 Selectivity” value is 37 fold. Further, in assay [2], the kinact/KI was 1020 M⁻¹ s⁻¹ and the “Fold PAD2 Selectivity” value is 32 fold. Also, in assay [3], the kinact/KI was 296 M⁻¹ s⁻¹ and the “Fold PAD3 Selectivity” value worked out at 9.3 fold. Also, in assay [4], the kinact/KI is 31.7 M⁻¹ s⁻¹ and the “Fold PAD4 Selectivity” value is reported as 1.0 fold.

In the case of `COc1cccc2c1nc([C@H](CCCNC(=N)CF)NC(=O)c1cccc3c1C(=O)N(C(C)C)C3)n2C` [Compound 8q], in assay [1], the kinact/KI was 858 M⁻¹ s⁻¹ and the “Fold PAD1 Selectivity” value stood at 32 fold. Further, in assay [2], the kinact/KI was 1560 M⁻¹ s⁻¹ and the “Fold PAD2 Selectivity” value is 58 fold. In assay [3], the kinact/KI is 26.7 M⁻¹ s⁻¹ and the “Fold PAD3 Selectivity” value turned out to be 1.0 fold. Further, in assay [4], the kinact/KI is 70 M⁻¹ s⁻¹ and the “Fold PAD4 Selectivity” value came to 2.6 fold.

For the compound `COc1cccc2c1nc([C@H](CCCNC(=N)CCl)NC(=O)c1cccc3c1C(=O)N(C(C)C)C3)n2C` [Compound 8r], in assay [1], the kinact/KI was 732 M⁻¹ s⁻¹ and the “Fold PAD1 Selectivity” value is listed as 3.5 fold. In assay [2], the kinact/KI was 853 M⁻¹ s⁻¹ and the “Fold PAD2 Selectivity” value was found to be 4.1 fold. In assay [3], the inactivation efficiency (kinact/KI) was 241 M⁻¹ s⁻¹ and the “Fold PAD3 Selectivity” value is recorded as 1.2 fold. Further, in assay [4], the kinact/KI is 207 M⁻¹ s⁻¹ and the “Fold PAD4 Selectivity” value was 1.0 fold.

In the case of `COc1cccc2c1nc([C@H](CCCNC(=N)CF)NC(=O)c1cccc3c1C(=O)N(C1CC1)C3)n2C` [Compound 8s], in assay [1], the kinact/KI was 766 M⁻¹ s⁻¹ and the “Fold PAD1 Selectivity” value is 38 fold. Also, in assay [2], the inactivation efficiency (kinact/KI) is 1570 M⁻¹ s⁻¹ and the “Fold PAD2 Selectivity” value stood at 77 fold. Also, in assay [3], the kinact/KI is 20.3 M⁻¹ s⁻¹ and the “Fold PAD3 Selectivity” value stood at 1.0 fold. Besides, in assay [4], the kinact/KI is 75 M⁻¹ s⁻¹ and the “Fold PAD4 Selectivity” value was 3.8 fold.

For `COc1cccc2c1nc([C@H](CCCNC(=N)CCl)NC(=O)c1cccc3c1C(=O)N(C1CC1)C3)n2C` [Compound 8t], in assay [1], the kinact/KI was 674 M⁻¹ s⁻¹ and the “Fold PAD1 Selectivity” value came out at 4.7 fold. Besides, in assay [2], the kinact/KI is 958 M⁻¹ s⁻¹ and the “Fold PAD2 Selectivity” value was determined as 6.7 fold. For the same compound, in assay [3], the kinact/KI is 158 M⁻¹ s⁻¹ and the “Fold PAD3 Selectivity” value worked out at 1.1 fold. In assay [4], the kinact/KI was 143 M⁻¹ s⁻¹ and the “Fold PAD4 Selectivity” value came to 1.0 fold.

As to `CCN1Cc2cccc(C(=O)N[C@@H](CCCNC(=N)CF)c3nc4c(OC)cccc4n3CC)c2C1=O` [Compound 8u, N1-(2-ethyl-3-oxoisoindoline)benzoyl-N5-(2-fluoro-1-iminoethyl)-1-(4-methoxy-1-ethyl-benzo[d]imidazol-2-yl)-L-ornithine], in assay [1], the kinact/KI is 652 M⁻¹ s⁻¹ and the “Fold PAD1 Selectivity” value is 28 fold. For the same compound, in assay [2] (PAD2, table footnote), the Ki turned out to be 23.4 µM and the kinact (as a rule, the maximal first-order rate at which the target is inactivated) was determined as 0.0218 s⁻¹. Moreover, in assay [2], the kinact/KI is 933 M⁻¹ s⁻¹ and the “Fold PAD2 Selectivity” value worked out at 40 fold. In assay [3], the inactivation efficiency (kinact/KI) was 23.3 M⁻¹ s⁻¹ and the “Fold PAD3 Selectivity” value was 2.0 fold. Moreover, in assay [4], the second-order inactivation constant (kinact/KI) is 46.7 M⁻¹ s⁻¹ and the “Fold PAD4 Selectivity” value is on record as 1.0 fold.

On to `CCN1Cc2cccc(C(=O)N[C@@H](CCCNC(=N)CCl)c3nc4c(OC)cccc4n3CC)c2C1=O` [Compound 8v, N1-(2-ethyl-3-oxoisoindoline)benzoyl-N5-(2-chloro-1-iminoethyl)-1-(4-methoxy-1-ethyl-benzo[d]imidazol-2-yl)-L-ornithine], for which, in assay [1], the kinact/KI is 907 M⁻¹ s⁻¹ and the “Fold PAD1 Selectivity” value came to 31 fold. Further, in assay [2], the kinact/KI is 776 M⁻¹ s⁻¹ and the “Fold PAD2 Selectivity” value stood at 27 fold. In addition, in assay [3], the kinact/KI was 99.5 M⁻¹ s⁻¹ and the “Fold PAD3 Selectivity” value worked out at 3.4 fold. Further, in assay [4], the kinact/KI is 29.2 M⁻¹ s⁻¹ and the “Fold PAD4 Selectivity” value is reported as 1.0 fold.

Consider `CCN1Cc2cccc(C(=O)N[C@@H](CCCNC(=N)CF)c3nc4cc(OC)ccc4[nH]3)c2C1=O` [Compound 8w, N1-(2-ethyl-3-oxoisoindoline)benzol-N5-(2-fluoro-1-iminoethyl)-1-(5-methoxy-1H-benzo[d]imidazol-2-yl)-L-ornithine], for which, in assay [1], the kinact/KI was 156 M⁻¹ s⁻¹ and the “Fold PAD1 Selectivity” value is listed as 4.4 fold. Further, in assay [2], the kinact/KI is 226 M⁻¹ s⁻¹ and the “Fold PAD2 Selectivity” value is 6.3 fold. For the same compound, in assay [3], the kinact/KI was 127 M⁻¹ s⁻¹ and the “Fold PAD3 Selectivity” value stood at 3.6 fold. In assay [4], the kinact/KI was 35.7 M⁻¹ s⁻¹ and the “Fold PAD4 Selectivity” value worked out at 1.0 fold.

`CCN1Cc2cccc(C(=O)N[C@@H](CCCNC(=N)CCl)c3nc4cc(OC)ccc4[nH]3)c2C1=O` [Compound 8x, N1-(2-ethyl-3-oxoisoindoline)benzoyl-N5-(2-chloro-1-iminoethyl)-1-(5-methoxy-1H-benzo[d]imidazol-2-yl)-L-ornithine]: in assay [1], the kinact/KI was 504 M⁻¹ s⁻¹ and the “Fold PAD1 Selectivity” value worked out at 7.8 fold. Besides, in assay [2], the inactivation efficiency (kinact/KI) was 590 M⁻¹ s⁻¹ and the “Fold PAD2 Selectivity” value is given as 9.1 fold. In assay [3], the kinact/KI is 267 M⁻¹ s⁻¹ and the “Fold PAD3 Selectivity” value was determined as 4.1 fold. Also, in assay [4], the kinact/KI is 64.8 M⁻¹ s⁻¹ and the “Fold PAD4 Selectivity” value is 1.0 fold.

With `CCN1Cc2cccc(C(=O)N[C@@H](CCCNC(=N)CF)c3nc4cc(OC)ccc4n3CC)c2C1=O` [Compound 8y, N1-(2-ethyl-3-oxoisoindoline)benzoyl-N5-(2-fluoro-1-iminoethyl)-1-(5-methoxy-1-ethyl-benzo[d]imidazol-2-yl)-L-ornithine], in assay [1], the inactivation efficiency (kinact/KI) was 253 M⁻¹ s⁻¹ and the “Fold PAD1 Selectivity” value worked out at 28 fold. In addition, in assay [2], the kinact/KI is 630 M⁻¹ s⁻¹ and the “Fold PAD2 Selectivity” value was 70 fold. Besides, in assay [3], the kinact/KI was 24.7 M⁻¹ s⁻¹ and the “Fold PAD3 Selectivity” value is recorded as 2.7 fold. Besides, in assay [4], the kinact/KI was 9 M⁻¹ s⁻¹ and the “Fold PAD4 Selectivity” value came to 1.0 fold.

Turning to `CCN1Cc2cccc(C(=O)N[C@@H](CCCNC(=N)CCl)c3nc4cc(OC)ccc4n3CC)c2C1=O` [Compound 8z, N1-(2-ethyl-3-oxoisoindoline)benzoyl-N5-(2-chloro-1-iminoethyl)-1-(5-methoxy-1-ethyl-benzo[d]imidazol-2-yl)-L-ornithine], in assay [1], the kinact/KI was 501 M⁻¹ s⁻¹ and the “Fold PAD1 Selectivity” value came to 21 fold. Also, in assay [2], the kinact/KI was 637 M⁻¹ s⁻¹ and the “Fold PAD2 Selectivity” value came out at 27 fold. In assay [3], the kinact/KI was 198 M⁻¹ s⁻¹ and the “Fold PAD3 Selectivity” value is recorded as 8.4 fold. For the same compound, in assay [4], the kinact/KI is 23.5 M⁻¹ s⁻¹ and the “Fold PAD4 Selectivity” value was determined as 1.0 fold.

With `Cn1c([C@H](CCCNC(=N)CF)NC(=O)c2ccccc2C(=O)OC(C)(C)C)nc2ccccc21` [Compound 9a, N1-(2-tert-butylcarboxy)benzoyl-N5-(2-fluoro-1-iminoethyl)-1-(1-methyl-benzo[d]imidazol-2-yl)-L-ornithine], in assay [1], the kinact/KI is 41.2 M⁻¹ s⁻¹ and the “Fold PAD1 Selectivity” value turned out to be 2.1 fold. In assay [2], the kinact/KI is 40 M⁻¹ s⁻¹ and the “Fold PAD2 Selectivity” value turned out to be 2.0 fold. Besides, in assay [3], the kinact/KI was 20 M⁻¹ s⁻¹ and the “Fold PAD3 Selectivity” value is given as 1.0 fold. For the same compound, in assay [4], the kinact/KI was 40.5 M⁻¹ s⁻¹ and the “Fold PAD4 Selectivity” value came out at 2.0 fold.
